US20090131481A1, “Transcription Factor Modulating Compounds and Methods of Use Thereof” (Paratek Pharmaceuticals, Inc., published 2009)
Like-named read-outs stand apart in the source and are kept apart here.

T1: ExsA (Pseudomonas aeruginosa, UniProt P26993)
T1 construct: made in house
T1 sequence (P26993 1-278): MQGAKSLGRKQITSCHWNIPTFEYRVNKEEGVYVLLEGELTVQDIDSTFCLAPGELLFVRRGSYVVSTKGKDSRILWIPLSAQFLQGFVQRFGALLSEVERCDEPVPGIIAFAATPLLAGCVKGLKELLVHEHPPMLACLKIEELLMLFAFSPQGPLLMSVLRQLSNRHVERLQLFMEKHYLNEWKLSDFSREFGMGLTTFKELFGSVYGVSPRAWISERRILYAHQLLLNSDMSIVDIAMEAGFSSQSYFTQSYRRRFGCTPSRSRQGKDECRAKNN

T2: SlyA (Escherichia coli, UniProt P0A8W2)
T2 sequence (P0A8W2 1-144): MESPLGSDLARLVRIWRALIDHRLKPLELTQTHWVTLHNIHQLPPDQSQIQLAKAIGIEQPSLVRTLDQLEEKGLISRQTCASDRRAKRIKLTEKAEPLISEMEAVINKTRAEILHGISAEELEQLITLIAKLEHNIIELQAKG

T3: MarA (Escherichia coli, UniProt P0ACH5)
T3 sequence (P0ACH5 1-127): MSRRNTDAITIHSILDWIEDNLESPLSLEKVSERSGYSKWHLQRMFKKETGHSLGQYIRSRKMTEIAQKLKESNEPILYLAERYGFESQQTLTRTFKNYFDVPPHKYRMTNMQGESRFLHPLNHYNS

T4: Rob (Escherichia coli, UniProt P0ACI0)
T4 sequence (P0ACI0 1-289): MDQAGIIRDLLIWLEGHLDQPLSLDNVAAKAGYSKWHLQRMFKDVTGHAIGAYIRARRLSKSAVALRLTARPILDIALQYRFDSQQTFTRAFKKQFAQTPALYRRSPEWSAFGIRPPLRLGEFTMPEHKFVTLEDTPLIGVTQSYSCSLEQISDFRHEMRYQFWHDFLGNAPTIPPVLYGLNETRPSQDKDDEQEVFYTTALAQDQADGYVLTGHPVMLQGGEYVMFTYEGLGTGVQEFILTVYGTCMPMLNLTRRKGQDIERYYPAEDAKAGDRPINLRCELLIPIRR

T5: Rma (Salmonella typhimurium, UniProt H9L484)
T5 construct: fused on or other part: 6-histidine tag
T5 sequence (H9L484 1-113): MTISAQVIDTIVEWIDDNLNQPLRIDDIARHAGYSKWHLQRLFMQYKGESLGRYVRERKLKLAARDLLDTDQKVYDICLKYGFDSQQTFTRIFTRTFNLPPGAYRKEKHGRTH

T6: SoxS (Escherichia coli, UniProt P0A9E2)
T6 sequence (P0A9E2 1-107): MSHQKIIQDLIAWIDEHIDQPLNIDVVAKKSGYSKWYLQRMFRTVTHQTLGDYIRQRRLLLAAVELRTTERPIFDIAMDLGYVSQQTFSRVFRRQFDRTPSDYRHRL


Columns and labels:
ExsA [1] = biological target: T1, ExsA; experiment: Chemiluminescence-based ExsA-DNA binding assay; parameters: species or system P. aeruginosa; conditions: read-out: ExsA EC50
SlyA = biological target: T2, SlyA; experiment: biochemical; type: binding, E. coli
MarA = biological target: T3, MarA; experiment: Chemiluminescence-based MarA-DNA binding assay; parameters: species or system E. coli; conditions: Table 10
Rob = biological target: T4, Rob; experiment: Chemiluminescence-based Rob-DNA binding assay; parameters: species or system E. coli; conditions: Table 10
Rma = biological target: T5, Rma; experiment: Chemiluminescence-based Rma-DNA binding assay; parameters: species or system S. typhimurium; conditions: Table 10
SoxS = biological target: T6, SoxS; experiment: Chemiluminescence-based SoxS-DNA binding assay; parameters: made in house; species or system E. coli
E. coli UPEC strain C189 = experiment: Ascending pyelonephritis model of infection (Example 3); type: in vivo; conditions: female CD1 mice, oral dosing at infection and once a day for 4 days, 5-day infection
uncut plasmid DNA = experiment: Qualitative agarose gel DNA intercalation assay; type: binding; conditions: 100 ng uncut plasmid DNA, compared with a known DNA intercalator
LcrF (VirF) = LcrF (VirF) (Yersinia pestis, UniProt P28808); experiment: biochemical; type: binding, Y. pseudotuberculosis; conditions: EC50 for inhibition of LcrF(VirF)-DNA binding
Sequence of LcrF (VirF) (P28808 whole entry, looked up): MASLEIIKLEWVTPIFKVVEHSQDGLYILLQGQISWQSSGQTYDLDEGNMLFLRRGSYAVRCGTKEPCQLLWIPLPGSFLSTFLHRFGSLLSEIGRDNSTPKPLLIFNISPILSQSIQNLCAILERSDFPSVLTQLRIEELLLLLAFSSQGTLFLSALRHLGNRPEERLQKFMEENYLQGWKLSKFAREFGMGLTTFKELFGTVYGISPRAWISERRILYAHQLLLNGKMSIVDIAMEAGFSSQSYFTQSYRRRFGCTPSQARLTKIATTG

Y. pseudotuberculosis [2] = experiment: microbe, parasite or virus in culture; conditions: Yersinia pseudotuberculosis, J774, read-out: % Cytotoxicity
[3] = system: E. coli C189 (clinical cystitis isolate); experiment: E. coli ascending pyelonephritis model, compound GM (Example 4); type: in vivo; conditions: CD1 mice
P. aeruginosa PA103 = experiment: Lethal P. aeruginosa pneumonia model in mice; type: in vivo; conditions: IP 25 mg/kg, 10^6 organisms intranasally, FIG. 5 and 6
Y. pseudotuberculosis [4] = conditions: in vivo, sc, 25 mg/kg
Y. pseudotuberculosis [5] = conditions: in vivo, sc, 25 mg/kg; remark: listed apart in the source
ExsA [6] = biological target: ExsA (Pseudomonas aeruginosa, UniProt P26993 P26993:1-278); experiment: LANCE TR-FRET; same buffer; basis of inhibitor screen; conditions: tags: 6xHis; label: N-term (5') biotin
[7] = dose response analysis (footnote c), read-out: in vitro SoxS activity: concentration necessary to inhibit DNA-protein binding by 50% (EC50)

| Molecule | EC50 (ExsA [1]; Table 7, cell-free system) | EC50 (ExsA [1]; Table 10) | EC50 (Rob) | EC50 (Rma) | EC50 (SoxS; Table 10, read-out: SoxS EC50) | EC50 (LcrF (VirF)) | further results |
| --- | --- | --- | --- | --- | --- | --- | --- |
| CN(C)c1ccc(C(=O)Nc2ccc(-c3nc4ccc([N+](=O)[O-])cc4n3O)cc2)cc1 [AH] | > 25 µM | 1 to 4.9 µM | 1 to 4.9 µM | 1 to 4.9 µM | < 0.9 µM | – | EC50 (SlyA): > 5 µM; EC50 (MarA): 1 to 4.9 µM; EC50 (SoxS; [7]): < 0.9 µM |
| O=[N+]([O-])c1ccc2nc(-c3ccc(-c4ccccc4)o3)n(O)c2c1 [BQ] | – | > 5 µM | > 5 µM | > 5 µM | 1 to 4.9 µM | – | Efficacy (log10 decrease in the CFU/g kidney tissue) (E. coli UPEC strain C189): ** (exhibited a 1.1-2.0 log decrease in CFU/g); ability to intercalate DNA (uncut plasmid DNA): not found to intercalate DNA; EC50 (SlyA): > 5 µM; EC50 (MarA): > 5 µM; EC50 (SoxS; [7]): > 5 µM |
| O=C(Nc1ccc(-c2nc3ccc([N+](=O)[O-])cc3n2O)cc1)c1ccc(F)cc1 [C] | < 10 µM | 1 to 4.9 µM | 1 to 4.9 µM | 1 to 4.9 µM | 1 to 4.9 µM | 10 to 25 µM | activity at 50 µg/mL (Y. pseudotuberculosis [2]): 75 to 99% |
| Cc1ccc(COn2c(-c3ccccc3)nc3ncccc32)cc1 [GM] | – | – | – | – | – | – | Difference between vehicle treated and compound dose group (kidneys harvested 5 days post infection) ([3]; single dose at the time of infection, 100 mg/kg, p<0.003): statistically significant difference; Difference between untreated (vehicle) and compound dose groups (kidneys harvested 5 days post infection) ([3]; subcutaneous at 0, 6, 24, 30, 48, 54, 72 and 96 hours post-infection, 1, 5 and 20 mg/kg, p<0.05): statistically significant difference |
| O=C(Nc1ccc(-c2nc3ccc([N+](=O)[O-])cc3n2O)cc1)c1ccc(-n2ccnc2)cc1 [I] | 10 to 25 µM | – | – | – | – | < 10 µM | survival at 48 hours post infection (P. aeruginosa PA103): 50% |
| O=C(/C=C/c1ccc(F)cc1)Nc1ccc(-c2nc3ccc([N+](=O)[O-])cc3n2O)cc1 [M] | < 10 µM | – | – | – | – | < 10 µM | Efficacy (log10 decrease in the CFU/g kidney tissue) (E. coli UPEC strain C189): *** (exhibited a 0-1.0 log decrease in CFU/g); percent of the starting weight of the infected mice (Y. pseudotuberculosis [4]): approximately 120%; percent survival of infected mice (Y. pseudotuberculosis [4]): 80%; Log Decrease in CFU/g Lung Tissue (Y. pseudotuberculosis [5]): ** (key: ***: exhibited a 0-1.0 log decrease in the CFU/g of LcrF in lung tissue; **: exhibited a 1.1-2.0 log decrease in the CFU/g of LcrF in lung tissue; --: exhibited no efficacy); activity at 50 µg/mL (Y. pseudotuberculosis [2]): < 75% |
| LANCE target DNA (SEQ ID NO. 1) (dsDNA) DNA 1: CCGATTTAGCAAAACGTGGCATCGGTC DNA 2: GACCGATGCCACGTTTTGCTAAATCGG | – | – | – | – | – | – | binding result (ExsA [6]): binds |
